Measurements reported in patent publication US20160271160A1, “HCV POLYMERASE INHIBITORS” (MEDIVIR AB, priority 2013, published 2016).

Key:
Type in all cases: cell-based
HCV GT1b (stable) = HCV GT1b (stable) replicon; settings: Hepatitis C virus, wild type, geometric mean
From the text: (§1) The compound of Example 2 was further evaluated to assess the antiviral activity against genotypes 1-6 of HCV, both wild type and a number of clinically relevant mutant strains. The result of the evaluation together with the average EC50 of a genotypes and the corresponding values for compound 40ii of WO2014/058801 are summarised in Tables 2 and 3.

HCV GT1b (transient) = HCV GT1b (transient) replicon; settings: Hepatitis C virus, wild type, geometric mean
From the text: as §1

[1] = system: HCV GT1a NS5B in con1 background; assay: HCV GT1a chimeric replicon; settings: Hepatitis C virus
From the text: as §1

HCV GT2a virus = assay: HCV GT2a virus; settings: Hepatitis C virus, wild type, geometric mean
From the text: as §1

[2] = system: HCV GT3a NS5B in con1 background; assay: HCV GT3a chimeric replicon; settings: Hepatitis C virus
From the text: as §1

[3] = system: HCV GT4a NS5B in con1 background; assay: HCV GT4a chimeric replicon; settings: Hepatitis C virus
From the text: as §1

[4] = system: HCV GT5a NS5B in con1 background; assay: HCV GT5a chimeric replicon; settings: Hepatitis C virus
From the text: as §1

[5] = system: HCV GT6a NS5B in con1 background; assay: HCV GT6a chimeric replicon; settings: Hepatitis C virus
From the text: as §1

[6] = system: genotypes 1-6 of HCV, wild type; assay: Wild type HCV genotype panel, average
From the text: as §1

HCV GT1b S282T = HCV GT1b S282T mutant replicon
From the text: as §1

HCV GT1a S282T = HCV GT1a S282T chimeric mutant replicon
From the text: as §1

HCV GT3a S282T = HCV GT3a S282T chimeric mutant replicon
From the text: as §1

HCV GT4a S282T = HCV GT4a S282T chimeric mutant replicon
From the text: as §1

HCV mutant strains = assay: Mutant HCV panel, average
From the text: as §1

In the case of `CC(C)OC(=O)[C@H](C)OP(=O)(OC[C@H]1O[C@@H](n2ccc(=O)[nH]c2=O)[C@](C)(Cl)[C@@H]1O)Oc1ccccc1` (some centres unmarked) [Cpd. 40ii of WO2014/058801], the EC50 (HCV GT1b (stable)) is reported as 91 nM, the EC50 (HCV GT1b (transient)) is reported as 93 nM and the EC50 [1] is reported as 140 nM. For the same molecule, the EC50 (HCV GT2a virus) was 26 nM, the EC50 [2] was 139 nM and the EC50 [3] was 149 nM. It also gave an EC50 [4] of 105 nM, an EC50 [5] of 170 nM and an EC50 ([6]; Hepatitis C virus, wild type assays, arithmetic mean +/− SEM) of 114 nM. For the same molecule, the “potency increase vs cpd. 40ii of WO2014/058801” value ([6]; wild type, from AVG EC50) was 1.0, the EC50 (HCV GT1b S282T; Hepatitis C virus, geometric mean) was 344 nM and the “FC vs WT” value (HCV GT1b S282T; fold change of EC50) was 3.7. For the same molecule, the “FC vs WT” value (HCV GT1a S282T; HCV GT1a S282T, fold change of EC50) was 4.0, the EC50 (HCV GT1a S282T; Hepatitis C virus, GT1A) was 554 nM and the “FC vs WT” value (HCV GT3a S282T; HCV GT3a S282T, fold change of EC50) was 2.6. The EC50 (HCV GT3a S282T; Hepatitis C virus, GT3A) was 366 nM, the “FC vs WT” value (HCV GT4a S282T; HCV GT4a S282T, fold change of EC50) was 12 and the EC50 (HCV GT4a S282T; Hepatitis C virus, GT4A) was 1720 nM. For the same molecule, the EC50 (HCV mutant strains; Hepatitis C virus, read-out: AVG EC50) was 746 nM and the “potency increase vs cpd. 40ii of WO2014/058801” value (HCV mutant strains; {}) was 1.0.
